Results taken from patent US10780043B2, “Cosmetic compositions comprising ginger root extracts” (Symrise AG, priority 2015, dated 2020).

Test system: CYP1A1 gene expression
Test: CYP1A1 gene expression (qRT-PCR) in keratinocytes after induction with model particles
Type: cell-based, human
Conditions: 10 μM, untreated = 1
Method: Gene expression was analyzed via qRT-PCR.

- CYP1A1 Induction mean ± SE (NHEK adult, SRM1650 1.5 μg/cm2, 6 h): 0.02 ± 0.00
- CYP1A1 Induction mean ± SE (NHEK adult, SRM2975 1.5 μg/cm2, 6 h): 0.20 ± 0.00
- CYP1A1 Induction mean ± SE (NHEK adult, SRM2975 1.5 μg/cm2, 24 h): 0.01 ± 0.00
- CYP1A1 Induction mean ± SE (indoor particles Huber990 1.5 μg/cm2, 6 h): 0.05 ± 0.00
- CYP1A1 Induction mean ± SE (indoor particles Huber990 1.5 μg/cm2, 24 h): 0.20 ± 0.00
Substance: E/Z-2-benzylindene-5,6-dimethoxy-3,3-dimethylindan-1-one [BDDI]
